Assay results reported in the supplement of paper PMC8671470.

Key:
Conditions in all cases: 72 h
KU-812 = experiment: cell viability (% survival relative to DMSO control, bortezomib = 0%); higher = less cytotoxic
Method in brief: (§1)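 Fifteen myeloid leukaemia cell lines (10 AML, 5 CML) were seeded at a density titrated to the linear growth range. They went into 384-well plates with compounds pre-printed at 1, 10, 100, 1000 or 10000 nM in duplicate. After 72 h at 37 °C with 5% CO2, viability was read by CellTiter-Glo luminescence. Values are percent survival, with vehicle set to 100% and a 10 µM positive control to 0%, averaged over the duplicates.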

NOMO-1 = experiment: as above
Method in brief: as §1

MOLM-13 = experiment: as above
Method in brief: as §1

THP-1 = experiment: as above
Method in brief: as §1

[1] = test system: myeloid leukemia patient primary cells Pat.10; experiment: cell viability (% survival relative to DMSO control); higher = less cytotoxic
Method in brief: (§2)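 Thawed, Ficoll-purified mononuclear cells from AML or CML patients in RPMI 1640 with 10% FBS were seeded at 10,000 cells/well on 384-well plates pre-printed with 70 compounds at five tenfold concentrations, 1–10,000 nM, in duplicate, for 72 h. Viability was read by CellTiter-Glo and normalised to DMSO and 10 μM proteasome-inhibitor wells. Where given, area under the curve came from four-parameter log-logistic fits (drc, PharmacoGx R packages).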

[2] = test system: myeloid leukemia patient primary cells Pat.14; experiment: as above
Method in brief: as §2

[3] = test system: myeloid leukemia patient primary cells Pat.9; experiment: as above
Method in brief: as §2

[4] = test system: myeloid leukemia patient primary cells Pat.3; experiment: as above
Method in brief: as §2

[5] = test system: myeloid leukemia patient primary cells Pat.11; experiment: as above
Method in brief: as §2

[6] = test system: myeloid leukemia patient primary cells Pat.7; experiment: as above
Method in brief: as §2

[7] = test system: myeloid leukemia patient primary cells Pat.2; experiment: as above
Method in brief: as §2

[8] = test system: myeloid leukemia patient primary cells Pat.4; experiment: as above
Method in brief: as §2

[9] = test system: myeloid leukemia patient primary cells Pat.6; experiment: as above
Method in brief: as §2

[10] = test system: myeloid leukemia patient primary cells Pat.13; experiment: as above
Method in brief: as §2

[11] = test system: myeloid leukemia patient primary cells Pat.15; experiment: as above
Method in brief: as §2

[12] = test system: myeloid leukemia patient primary cells Pat.12; experiment: as above
Method in brief: as §2

[13] = test system: myeloid leukemia patient primary cells Pat.1; experiment: as above
Method in brief: as §2

[14] = test system: myeloid leukemia patient primary cells Pat.8; experiment: as above
Method in brief: as §2

[15] = test system: myeloid leukemia patient primary cells Pat.5; experiment: as above
Method in brief: as §2

## C=C1NC(=O)c2cc(CN(C)c3ccc(C(=O)N[C@@H](CCC(=O)O)C(=O)O)s3)ccc2N1 [Raltitrexed]
KU-812; 1 nM
  cell viability: 94.1%
KU-812; 10 nM
  cell viability: 104%
KU-812; 100 nM
  cell viability: 37.7%
KU-812; 1000 nM
  cell viability: 34.6%
KU-812; 10000 nM
  cell viability: 39.1%
NOMO-1; 1 nM
  cell viability: 99.5%
NOMO-1; 10 nM
  cell viability: 113%
NOMO-1; 100 nM
  cell viability: 51.3%
NOMO-1; 1000 nM
  cell viability: 34.8%
NOMO-1; 10000 nM
  cell viability: 31.4%
MOLM-13; 1 nM
  cell viability: 118%
MOLM-13; 10 nM
  cell viability: 145%
MOLM-13; 100 nM
  cell viability: 5.74%
MOLM-13; 1000 nM
  cell viability: 1.25%
MOLM-13; 10000 nM
  cell viability: 1.81%
THP-1; 1 nM
  cell viability: 92.9%
THP-1; 10 nM
  cell viability: 118%
THP-1; 100 nM
  cell viability: 61.4%
THP-1; 1000 nM
  cell viability: 40.7%
THP-1; 10000 nM
  cell viability: 46.1%
[1]; 1 nM
  cell viability: 54.5%
[1]; 10 nM
  cell viability: 74.6%
[1]; 100 nM
  cell viability: 96.5%
[1]; 1000 nM
  cell viability: > 100%
[1]; 10000 nM
  cell viability: 89.9%
[2]; 1 nM
  cell viability: 71%
[2]; 10 nM
  cell viability: 94.5%
[2]; 100 nM
  cell viability: > 100%
[2]; 1000 nM
  cell viability: 90.2%
[2]; 10000 nM
  cell viability: 92.1%
[3]; 1 nM
  cell viability: 40.5%
[3]; 10 nM
  cell viability: 84%
[3]; 100 nM
  cell viability: 81.9%
[3]; 1000 nM
  cell viability: 54.5%
[3]; 10000 nM
  cell viability: 72.8%
[4]; 1 nM
  cell viability: 81.1%
[4]; 10 nM
  cell viability: > 100%
[4]; 100 nM
  cell viability: 58.5%
[4]; 1000 nM
  cell viability: 38.7%
[4]; 10000 nM
  cell viability: 58.7%
[5]; 1 nM
  cell viability: 93.9%
[5]; 10 nM
  cell viability: 97.3%
[5]; 100 nM
  cell viability: 99.3%
[5]; 1000 nM
  cell viability: 97.4%
[5]; 10000 nM
  cell viability: 99.2%
[6]; 1 nM
  cell viability: 64.8%
[6]; 10 nM
  cell viability: > 100%
[6]; 100 nM
  cell viability: 97.1%
[6]; 1000 nM
  cell viability: 85.1%
[6]; 10000 nM
  cell viability: > 100%
[7]; 1 nM
  cell viability: 95.5%
[7]; 10 nM
  cell viability: 95%
[7]; 100 nM
  cell viability: > 100%
[7]; 1000 nM
  cell viability: 99.7%
[7]; 10000 nM
  cell viability: 98.5%
[8]; 1 nM
  cell viability: 80.7%
[8]; 10 nM
  cell viability: > 100%
[8]; 100 nM
  cell viability: 94.1%
[8]; 1000 nM
  cell viability: 97.6%
[8]; 10000 nM
  cell viability: > 100%
[9]; 1 nM
  cell viability: 90.3%
[9]; 10 nM
  cell viability: 98.1%
[9]; 100 nM
  cell viability: > 100%
[9]; 1000 nM
  cell viability: > 100%
[9]; 10000 nM
  cell viability: > 100%
[10]; 1 nM
  cell viability: > 100%
[10]; 10 nM
  cell viability: 85.4%
[10]; 100 nM
  cell viability: > 100%
[10]; 1000 nM
  cell viability: 92.6%
[10]; 10000 nM
  cell viability: 95.5%
[11]; 1 nM
  cell viability: 81.4%
[11]; 10 nM
  cell viability: 90%
[11]; 100 nM
  cell viability: 89.2%
[11]; 1000 nM
  cell viability: 95.1%
[11]; 10000 nM
  cell viability: > 100%
[12]; 1 nM
  cell viability: 86.9%
[12]; 10 nM
  cell viability: 96.9%
[12]; 100 nM
  cell viability: > 100%
[12]; 1000 nM
  cell viability: 95.9%
[12]; 10000 nM
  cell viability: 98.6%
[13]; 1 nM
  cell viability: 79.1%
[13]; 10 nM
  cell viability: 96.9%
[13]; 100 nM
  cell viability: 99.9%
[13]; 1000 nM
  cell viability: 93.7%
[13]; 10000 nM
  cell viability: > 100%
[14]; 1 nM
  cell viability: 90.8%
[14]; 10 nM
  cell viability: 85.5%
[14]; 100 nM
  cell viability: 87.2%
[14]; 1000 nM
  cell viability: 87.3%
[14]; 10000 nM
  cell viability: > 100%
[15]; 1 nM
  cell viability: 43.3%
[15]; 10 nM
  cell viability: 90.4%
[15]; 100 nM
  cell viability: > 100%
[15]; 1000 nM
  cell viability: 87%
[15]; 10000 nM
  cell viability: 92.7%
